For five compounds, solubility (mole fraction) results are on record in BigSolDB 2.1.

By solubility (mole fraction) is commonly meant solubility expressed as the solute's share of all molecules.

The conditions of the data set: in water.

In the case of `COc1cc(NS(=O)(=O)c2ccc(N)cc2)nc(OC)n1`, the solubility (mole fraction) is, setting by setting: (298.15 K) 3.07e-06; (303.15 K) 3.83e-06; (308.15 K) 4.78e-06; (313.15 K) 5.83e-06; (318.15 K) 7.25e-06; (323.15 K) 8.76e-06. Further, the solubility (mole fraction) reads like this: (328.15 K) 1.05e-05; (333.15 K) 1.28e-05.

In the case of `COc1cc(NS(=O)(=O)c2ccc(N)cc2)ncn1`, the solubility (mole fraction) reads like this: (298.15 K) 3.88e-06; (303.15 K) 4.9e-06; (308.15 K) 6.13e-06; (313.15 K) 7.65e-06; (318.15 K) 9.63e-06; (323.15 K) 1.17e-05. Moreover, the solubility (mole fraction) was 1.45e-05 (328.15 K) and 1.76e-05 (333.15 K).

As for `Nc1ccc(S(=O)(=O)Nc2ncccn2)cc1`, the solubility (mole fraction) is, setting by setting: (298.15 K) 4.82e-06; (303.15 K) 6.2e-06; (308.15 K) 8.23e-06; (313.15 K) 1.05e-05; (318.15 K) 1.33e-05; (323.15 K) 1.7e-05. Further, the solubility (mole fraction) (328.15 K) was determined as 2.1e-05 and the solubility (mole fraction) (333.15 K) was determined as 2.62e-05.

`COc1cnc(NS(=O)(=O)c2ccc(N)cc2)nc1`: the solubility (mole fraction) reads like this: (298.15 K) 5.52e-06; (303.15 K) 7.19e-06; (308.15 K) 9.26e-06; (313.15 K) 1.17e-05; (318.15 K) 1.48e-05; (323.15 K) 1.88e-05. Further, the solubility (mole fraction) is, setting by setting: (328.15 K) 2.34e-05; (333.15 K) 2.92e-05.

With `Nc1ccc(S(=O)(=O)[N-]c2cncc(Cl)n2)cc1.[Na+]`, the solubility (mole fraction) came to 1.12e-05 (298.15 K); 1.35e-05 (303.15 K); 1.59e-05 (308.15 K); 1.91e-05 (313.15 K); 2.3e-05 (318.15 K); 2.75e-05 (323.15 K). In addition, the solubility (mole fraction) is, setting by setting: (328.15 K) 3.28e-05; (333.15 K) 3.91e-05.
